Measured values published in US4251658A, “3-(1-Pyrazolyl)-pyridazine derivatives” (Richter Gedeon Vegyeszeti Gyar Rt., priority 1977, dated 1981).

Key:
[1] = biological target: T1, prostaglandin dehydrogenase (PGDH) (Sus scrofa, UniProt A0ACM8QJV0); assay: Prostaglandin dehydrogenase (PGDH) inhibiting action, PGDH preparation from pig-lung; format: biochemical; conditions: read-out: I50% inhibiting levels in final concentrations, PGDH
T1 construct: PGDH preparation from pig-lung; from tissue; host or cells: pig lung
T1 sequence (A0ACM8QJV0 1-266): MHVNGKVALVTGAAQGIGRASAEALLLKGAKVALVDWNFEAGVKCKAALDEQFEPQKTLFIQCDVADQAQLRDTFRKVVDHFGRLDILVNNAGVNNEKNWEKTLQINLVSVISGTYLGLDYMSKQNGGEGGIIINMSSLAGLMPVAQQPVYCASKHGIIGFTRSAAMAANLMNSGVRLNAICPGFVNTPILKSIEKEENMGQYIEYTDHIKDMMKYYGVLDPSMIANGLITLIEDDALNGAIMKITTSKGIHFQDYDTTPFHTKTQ
Excerpt: (§1) The I50%, i.e. the index of inhibition is defined as the concentration of the substance inhibiting to 50% the function of the corresponding enzyme.

[2] = biological target: prostaglandin-A isomerase (PGAI); assay: Prostaglandin-A isomerase (PGAI) inhibiting action, PGAI preparation from the blood-plasma of pigs; format: biochemical; conditions: read-out: I50% inhibiting levels in final concentrations, PGAI
Excerpt: as §1

in vivo = conditions: mouse, mice, oral, read-out: Acute oral toxicity on mice LD50
[3] = Hypotensive action in narcotized cats; format: in vivo; conditions: pentobarbital narcosis
Description: The substances were administered in doses of 5, 2.5 and 1 mg./kg., respectively, and Hydralazine (1-hydrazinophthalazine hydrochloride) was used as reference compound.

[4] = Systolic blood pressure in the caudal artery of spontaneously hypertensive (Wistar-Okamoto) rats, oral treatment; format: in vivo; conditions: for decrease in systolic blood pressure: oral

Row | SMILES | IC50 [2] [µM] | LD50 (in vivo) [mg/kg] | Decrease in blood pressure in Hgmm by 1 mg./kg. [3] [Hgmm] | other results
1 | CCOC(=O)c1cnn(-c2ccc(NCc3ccccn3)nn2)c1N [Example 16, 3-(2Pyridylmethylamino)-A] | 75 |  |  | IC50 [1]: 150 µM
2 | NNC(=O)c1cnn(-c2cccnn2)c1N [Example 32] |  | 200 | -10 | 
3 | CCOC(=O)c1cnn(-c2ccc(NC(C)c3ccccc3)nn2)c1N (centres unmarked) [Example 20, 3-(1-Phenylethylamino)-A] | 180 |  |  | 
4 | CCOC(=O)c1cnn(-c2ccc(NCc3ccccc3)nn2)c1N [Example 7, 3-Benzylamino-A] |  | 1000 | -15 | 
5 | CCOC(=O)c1cnn(-c2ccc(NCCN(CC)CC)nn2)c1N [Example 11, 3-(2-Diethylaminoethylamino)-A] | 44 |  |  | 
6 | CCOC(=O)c1cnn(-c2ccc(NCc3ccncc3)nn2)c1N [Example 18, 3-(4-Pyridylmethylamino)-A] | 36 |  |  | 
7 | CCOC(=O)c1cnn(-c2ccc(NC3CCCCC3)nn2)c1N [Example 5, 3-Cyclohexylamino-A] | 100 |  |  | 
8 | Cl.NNc1nncc2ccccc12 [Hydralazine, 1-hydrazinophthalazine hydrochloride, reference compound] | 90 |  | -40 | decrease in systolic blood pressure ([4]; 10 mg./kg. (reference), after 2 hours): 21%; decrease in systolic blood pressure ([4]; 10 mg./kg. (reference), after 5 hours): 22%; decrease in systolic blood pressure ([4]; 10 mg./kg. (reference), after 24 hours): 15%
9 | COc1ccc(CCNc2ccc(-n3ncc(C(=O)NN)c3N)nn2)cc1OC [Example 33, 3-(3,4-Dimethoxyphenylethyl-amino)-B] |  | ~150 | -10 | 
10 | NNC(=O)c1cnn(-c2ccc(N(CCO)CCO)nn2)c1N [Example 31, 3-[bis(2-Hydroxyethyl)-amino]-6-(4-carbazoyl-5-amino-1-pyrazolyl)-pyridazin] |  | 250 | -10 | 
11 | CCOC(=O)c1cnn(-c2ccc(NCc3ccco3)nn2)c1N [Example 6, 3-Furfurylamino-A] | 50 |  |  | IC50 [1]: 55 µM
12 | CCOC(=O)c1cnn(-c2ccc(NCc3cccnc3)nn2)c1N [Example 17, 3-(3-Pyrdiylmethylamino)-A] | 25 |  |  | IC50 [1]: 200 µM
13 | CN(N)c1ccc(-n2ncc(C#N)c2N)nn1 [Example 30, 3-(1-methylhydrazino)-6-(4-cyano-5-amino-1-pyrazolyl)-pyridazine] |  | 200 | -40 | tachycardia ([4]; against Hydralazine): does not cause any significant tachycardia; decrease in systolic blood pressure ([4]; 20 mg./kg., after 2 hours): 31%; decrease in systolic blood pressure ([4]; 20 mg./kg., after 5 hours): 16%; decrease in systolic blood pressure ([4]; 20 mg./kg., after 24 hours): 15%
